Test [1] deals with Mitogen-activated protein kinase 3 (Homo sapiens, UniProt P27361). The test is described as follows: Selectivity interaction (ActivX KiNativ screen (ex vivo kinase selectivity in human PBMCs)) EUB0001619a MAPK3. Conditions: PBMC, at 1 µM. Type of test: cell-based.
Test [2] has as its target T1, Mitogen-activated protein kinase 12 (Homo sapiens) (UniProt P53778).
T1 sequence (whole entry): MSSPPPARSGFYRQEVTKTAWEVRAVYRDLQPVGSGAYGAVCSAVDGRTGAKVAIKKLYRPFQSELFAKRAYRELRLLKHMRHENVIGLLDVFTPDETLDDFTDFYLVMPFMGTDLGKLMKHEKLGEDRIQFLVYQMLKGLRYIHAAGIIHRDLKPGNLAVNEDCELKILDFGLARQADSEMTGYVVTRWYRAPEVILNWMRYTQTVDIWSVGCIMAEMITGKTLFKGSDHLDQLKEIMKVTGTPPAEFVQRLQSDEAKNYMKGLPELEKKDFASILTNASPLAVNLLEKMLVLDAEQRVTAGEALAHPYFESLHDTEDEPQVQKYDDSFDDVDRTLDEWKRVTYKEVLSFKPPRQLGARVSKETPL
The test is described as follows: Selectivity interaction (KinomeScan (DiscoverX)) EUB0001619a MAPK12. The settings on record: at 1 µM.

The target in test [3] is Bone morphogenetic protein receptor type-1A (Homo sapiens, UniProt P36894). Conditions: at 10 µM.
In test [4] the target is Mitogen-activated protein kinase 10 (Homo sapiens, UniProt P53779). The test is described as follows: Selectivity interaction (KinomeScan (DiscoverX)) EUB0000695a MAPK10. The settings on record: at 100 nM.
Chain of Mitogen-activated protein kinase 10 (P53779 whole entry): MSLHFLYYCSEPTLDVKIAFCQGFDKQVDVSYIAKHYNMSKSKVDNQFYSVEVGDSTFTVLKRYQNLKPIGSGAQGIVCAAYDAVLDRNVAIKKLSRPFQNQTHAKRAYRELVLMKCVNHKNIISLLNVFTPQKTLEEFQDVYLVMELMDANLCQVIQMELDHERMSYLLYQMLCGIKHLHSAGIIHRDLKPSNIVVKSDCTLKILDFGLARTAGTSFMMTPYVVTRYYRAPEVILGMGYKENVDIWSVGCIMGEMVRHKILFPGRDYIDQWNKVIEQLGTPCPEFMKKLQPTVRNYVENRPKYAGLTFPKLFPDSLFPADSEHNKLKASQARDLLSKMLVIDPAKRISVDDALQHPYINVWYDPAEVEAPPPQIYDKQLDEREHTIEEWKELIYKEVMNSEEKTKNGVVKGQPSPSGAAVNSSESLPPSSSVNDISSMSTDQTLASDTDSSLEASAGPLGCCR
The target of test [5] is T2, Ephrin type-B receptor 1 (Homo sapiens) (UniProt P54762).
T2 sequence (whole entry): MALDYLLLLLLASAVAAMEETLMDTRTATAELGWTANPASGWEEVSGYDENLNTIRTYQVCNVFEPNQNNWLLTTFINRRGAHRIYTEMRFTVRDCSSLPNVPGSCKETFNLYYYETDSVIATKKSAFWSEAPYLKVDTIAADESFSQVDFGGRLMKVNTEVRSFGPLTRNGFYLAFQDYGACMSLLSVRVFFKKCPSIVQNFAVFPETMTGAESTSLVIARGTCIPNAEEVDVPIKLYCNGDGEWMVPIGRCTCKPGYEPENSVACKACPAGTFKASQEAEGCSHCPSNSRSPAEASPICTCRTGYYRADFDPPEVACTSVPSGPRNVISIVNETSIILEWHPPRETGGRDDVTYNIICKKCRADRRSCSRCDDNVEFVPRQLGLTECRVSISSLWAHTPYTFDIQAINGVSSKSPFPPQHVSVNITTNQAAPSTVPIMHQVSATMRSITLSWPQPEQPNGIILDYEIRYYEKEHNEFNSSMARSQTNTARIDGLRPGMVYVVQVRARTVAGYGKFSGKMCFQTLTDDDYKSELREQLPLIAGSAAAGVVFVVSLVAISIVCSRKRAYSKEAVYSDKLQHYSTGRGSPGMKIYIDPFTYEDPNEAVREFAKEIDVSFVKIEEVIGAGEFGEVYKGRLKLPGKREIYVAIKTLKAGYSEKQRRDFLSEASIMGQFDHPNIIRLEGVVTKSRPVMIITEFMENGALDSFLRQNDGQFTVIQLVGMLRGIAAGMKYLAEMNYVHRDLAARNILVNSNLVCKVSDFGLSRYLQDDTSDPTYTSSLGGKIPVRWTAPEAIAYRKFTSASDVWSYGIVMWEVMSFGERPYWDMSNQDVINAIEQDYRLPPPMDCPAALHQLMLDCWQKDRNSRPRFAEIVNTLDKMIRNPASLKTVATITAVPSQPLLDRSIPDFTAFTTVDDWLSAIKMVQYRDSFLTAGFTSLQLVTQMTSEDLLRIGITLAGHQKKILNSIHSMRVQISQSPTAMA
Put plainly: Selectivity interaction (SelectScreen profiling (Invitrogen)) EUB0000607a EPHB1. Conditions: at 2 µM.

Test [6] concerns the target Tyrosine-protein kinase HCK (Homo sapiens) (UniProt P08631). Put plainly: Selectivity interaction (ActivX KiNativ screen (kinase selectivity in THP-1 cell lysates)) EUB0000639a HCK. Type of test: subcellular. The settings on record: lysate, at 0.04 µM.
The target of test [7] is T3, Phosphatidylinositol 5-phosphate 4-kinase type-2 gamma (Homo sapiens) (UniProt Q8TBX8).
T3 sequence (whole entry): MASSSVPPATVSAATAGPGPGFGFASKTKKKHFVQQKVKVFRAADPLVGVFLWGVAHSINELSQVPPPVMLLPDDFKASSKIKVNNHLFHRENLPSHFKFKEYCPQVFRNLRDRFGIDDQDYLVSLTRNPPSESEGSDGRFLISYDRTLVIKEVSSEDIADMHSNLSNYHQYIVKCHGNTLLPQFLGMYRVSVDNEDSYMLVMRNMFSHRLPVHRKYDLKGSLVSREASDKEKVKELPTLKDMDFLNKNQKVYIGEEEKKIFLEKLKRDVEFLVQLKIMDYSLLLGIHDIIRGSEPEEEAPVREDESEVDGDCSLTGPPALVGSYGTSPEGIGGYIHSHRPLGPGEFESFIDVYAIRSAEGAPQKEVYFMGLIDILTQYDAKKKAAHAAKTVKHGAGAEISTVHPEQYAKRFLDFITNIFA
Put plainly: Selectivity interaction (KinomeScan (DiscoverX)) EUB0000045b PIP4K2C. The settings on record: at 1 µM.

In test [8] the target is High affinity nerve growth factor receptor (Homo sapiens, UniProt P04629). Put plainly: Selectivity interaction (Kinase panel (literature)) EUB0001199aCl NTRK1. The settings on record: at 1 µM.
Chain of High affinity nerve growth factor receptor (P04629 33-796 limits assumed): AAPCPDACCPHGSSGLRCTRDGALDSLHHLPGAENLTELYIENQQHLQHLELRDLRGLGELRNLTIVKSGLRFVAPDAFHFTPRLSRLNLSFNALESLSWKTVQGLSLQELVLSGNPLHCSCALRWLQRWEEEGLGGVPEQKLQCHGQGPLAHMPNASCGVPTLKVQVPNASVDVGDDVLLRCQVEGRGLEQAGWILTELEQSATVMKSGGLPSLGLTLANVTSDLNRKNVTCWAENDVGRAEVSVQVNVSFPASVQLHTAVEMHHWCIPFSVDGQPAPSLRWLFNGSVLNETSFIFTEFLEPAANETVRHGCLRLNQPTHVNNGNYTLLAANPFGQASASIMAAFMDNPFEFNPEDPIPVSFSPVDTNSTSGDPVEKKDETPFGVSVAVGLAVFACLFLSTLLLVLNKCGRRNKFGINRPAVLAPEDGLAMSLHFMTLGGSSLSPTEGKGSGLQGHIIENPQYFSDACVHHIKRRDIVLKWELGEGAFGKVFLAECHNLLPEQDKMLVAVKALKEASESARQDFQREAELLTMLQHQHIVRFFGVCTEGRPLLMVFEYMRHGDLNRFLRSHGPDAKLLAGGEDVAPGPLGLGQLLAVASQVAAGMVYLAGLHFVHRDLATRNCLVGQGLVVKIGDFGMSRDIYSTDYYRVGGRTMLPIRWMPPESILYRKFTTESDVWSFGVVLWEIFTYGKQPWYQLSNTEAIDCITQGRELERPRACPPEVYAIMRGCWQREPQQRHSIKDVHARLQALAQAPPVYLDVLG
In test [9] the target is Serine/threonine-protein kinase 35 (Homo sapiens) (UniProt Q8TDR2). The test is described as follows: Selectivity interaction (KinomeScan (DiscoverX)) EUB0001049a STK35. The settings on record: at 1 µM.
Chain of Serine/threonine-protein kinase 35 (Homo sapiens) (Q8TDR2 whole entry): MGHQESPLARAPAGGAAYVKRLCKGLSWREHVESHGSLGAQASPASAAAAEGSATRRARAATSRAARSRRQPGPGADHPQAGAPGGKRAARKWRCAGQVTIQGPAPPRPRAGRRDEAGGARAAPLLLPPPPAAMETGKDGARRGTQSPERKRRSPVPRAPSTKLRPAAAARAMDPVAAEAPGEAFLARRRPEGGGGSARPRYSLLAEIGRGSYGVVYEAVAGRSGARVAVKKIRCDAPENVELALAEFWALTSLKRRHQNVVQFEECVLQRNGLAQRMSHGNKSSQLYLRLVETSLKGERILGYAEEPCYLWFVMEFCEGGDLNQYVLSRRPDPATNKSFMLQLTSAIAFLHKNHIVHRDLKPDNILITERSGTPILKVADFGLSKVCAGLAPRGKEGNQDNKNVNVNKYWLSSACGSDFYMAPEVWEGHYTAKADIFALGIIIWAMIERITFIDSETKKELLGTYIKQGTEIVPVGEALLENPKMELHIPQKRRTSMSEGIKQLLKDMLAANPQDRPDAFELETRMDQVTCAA
The target in test [10] is Homeodomain-interacting protein kinase 3 (Homo sapiens, UniProt Q9H422). Put plainly: Selectivity interaction (Enzymatic assay (Eurofins)) EUB0001049a HIPK3.
Test [11] addresses Activin receptor type-1-like (Homo sapiens) (UniProt P37023). Put plainly: Selectivity interaction (KinomeScan (DiscoverX)) EUB0000618a ACVRL1. Conditions: at 10 µM.
The target in test [12] is Phosphatidylinositol 4-phosphate 5-kinase type-1 gamma (Homo sapiens) (UniProt O60331). The test is described as follows: Selectivity interaction (KinomeScan (DiscoverX)) EUB0000092b PIP5K1C. The settings on record: at 10 µM.
Chain of Phosphatidylinositol 4-phosphate 5-kinase type-1 gamma (Homo sapiens) (O60331 whole entry): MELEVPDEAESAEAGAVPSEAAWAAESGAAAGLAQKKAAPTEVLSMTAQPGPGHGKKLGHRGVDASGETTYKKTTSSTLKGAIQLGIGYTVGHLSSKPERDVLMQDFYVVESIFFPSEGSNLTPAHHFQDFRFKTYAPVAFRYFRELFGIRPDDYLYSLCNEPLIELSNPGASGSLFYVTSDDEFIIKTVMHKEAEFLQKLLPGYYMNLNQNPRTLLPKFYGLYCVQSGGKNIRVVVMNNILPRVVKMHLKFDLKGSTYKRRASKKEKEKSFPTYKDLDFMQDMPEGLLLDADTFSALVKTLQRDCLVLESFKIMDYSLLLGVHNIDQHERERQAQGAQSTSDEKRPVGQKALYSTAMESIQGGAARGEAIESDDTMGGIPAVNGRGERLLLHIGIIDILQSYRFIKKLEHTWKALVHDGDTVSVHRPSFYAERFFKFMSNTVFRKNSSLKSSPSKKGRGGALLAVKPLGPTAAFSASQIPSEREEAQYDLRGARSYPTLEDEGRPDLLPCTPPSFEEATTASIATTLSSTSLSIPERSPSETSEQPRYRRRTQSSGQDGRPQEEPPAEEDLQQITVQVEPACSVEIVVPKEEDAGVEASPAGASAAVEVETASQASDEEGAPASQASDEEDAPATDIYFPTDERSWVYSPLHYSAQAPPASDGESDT
For test [13], the target named is Mitogen-activated protein kinase kinase kinase kinase 4 (Homo sapiens, UniProt O95819). The test is described as follows: Selectivity interaction (SelectScreen Kinase Profiling (Thermo Fisher Scientific)) EUB0001558a MAP4K4. The settings on record: at 1 µM.
Chain of Mitogen-activated protein kinase kinase kinase kinase 4 (O95819 2-1239 limits assumed): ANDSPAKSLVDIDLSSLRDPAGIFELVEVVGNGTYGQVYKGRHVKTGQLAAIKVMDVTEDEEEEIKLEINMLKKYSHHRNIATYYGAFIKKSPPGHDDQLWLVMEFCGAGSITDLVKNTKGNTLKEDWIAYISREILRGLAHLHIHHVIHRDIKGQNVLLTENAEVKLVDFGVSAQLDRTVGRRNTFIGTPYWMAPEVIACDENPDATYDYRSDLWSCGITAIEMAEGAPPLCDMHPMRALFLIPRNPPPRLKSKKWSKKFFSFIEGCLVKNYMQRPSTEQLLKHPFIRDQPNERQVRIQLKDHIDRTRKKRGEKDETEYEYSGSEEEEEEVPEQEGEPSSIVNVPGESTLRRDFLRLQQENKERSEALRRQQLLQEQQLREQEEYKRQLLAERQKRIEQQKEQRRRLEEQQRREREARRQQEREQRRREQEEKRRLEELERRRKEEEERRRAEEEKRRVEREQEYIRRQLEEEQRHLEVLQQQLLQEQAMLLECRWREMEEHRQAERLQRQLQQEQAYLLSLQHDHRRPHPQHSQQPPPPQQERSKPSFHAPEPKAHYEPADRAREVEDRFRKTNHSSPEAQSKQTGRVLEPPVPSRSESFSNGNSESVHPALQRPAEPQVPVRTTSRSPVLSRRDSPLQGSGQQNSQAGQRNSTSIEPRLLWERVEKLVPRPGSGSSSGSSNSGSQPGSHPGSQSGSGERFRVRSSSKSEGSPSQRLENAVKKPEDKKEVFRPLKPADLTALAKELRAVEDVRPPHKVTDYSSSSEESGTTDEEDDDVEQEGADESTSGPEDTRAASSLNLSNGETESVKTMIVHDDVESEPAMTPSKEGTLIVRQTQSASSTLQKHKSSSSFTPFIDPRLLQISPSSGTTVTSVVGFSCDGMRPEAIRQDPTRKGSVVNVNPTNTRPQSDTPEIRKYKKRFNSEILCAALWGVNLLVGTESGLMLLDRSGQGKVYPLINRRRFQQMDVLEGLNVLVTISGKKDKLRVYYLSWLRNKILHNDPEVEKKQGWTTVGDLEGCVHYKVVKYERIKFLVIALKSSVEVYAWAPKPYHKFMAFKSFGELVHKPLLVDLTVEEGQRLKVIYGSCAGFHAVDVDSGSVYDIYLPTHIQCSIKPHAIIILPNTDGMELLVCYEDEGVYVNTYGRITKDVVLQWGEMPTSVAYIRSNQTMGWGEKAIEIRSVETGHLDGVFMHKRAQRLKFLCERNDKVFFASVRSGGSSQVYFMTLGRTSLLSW
Test [14] has as its target Serine/threonine-protein kinase NIM1 (Homo sapiens, UniProt Q8IY84). The test is described as follows: Selectivity interaction (KinomeScan (DiscoverX)) EUB0001079a NIM1K. Conditions: at 1 µM.
Test [15] concerns the target Serine/threonine-protein kinase Chk2 (Homo sapiens) (UniProt O96017). Put plainly: Selectivity interaction (Millipore kinase profiler) EUB0000124b CHEK2. Conditions: at 10 µM.
Test [16] addresses Mitogen-activated protein kinase kinase kinase 1 (Homo sapiens, UniProt Q13233). Put plainly: Selectivity interaction (Kinase panel (KiNativ target engagement assay in Jurkat cells)) EUB0001635a MAP3K1. Type of test: cell-based. The settings on record: Selectivity number of off-targets 0.0, Selectivity number of targets 233.0, Source Knowledge https://www.sciencedirect.com/science/article/pii/S2451945619300674?via%3Dihub, at 1 µM.

Where only a bound is given, the exact number is not on record here.

Chain of Serine/threonine-protein kinase Chk2 (Homo sapiens) (O96017 whole entry): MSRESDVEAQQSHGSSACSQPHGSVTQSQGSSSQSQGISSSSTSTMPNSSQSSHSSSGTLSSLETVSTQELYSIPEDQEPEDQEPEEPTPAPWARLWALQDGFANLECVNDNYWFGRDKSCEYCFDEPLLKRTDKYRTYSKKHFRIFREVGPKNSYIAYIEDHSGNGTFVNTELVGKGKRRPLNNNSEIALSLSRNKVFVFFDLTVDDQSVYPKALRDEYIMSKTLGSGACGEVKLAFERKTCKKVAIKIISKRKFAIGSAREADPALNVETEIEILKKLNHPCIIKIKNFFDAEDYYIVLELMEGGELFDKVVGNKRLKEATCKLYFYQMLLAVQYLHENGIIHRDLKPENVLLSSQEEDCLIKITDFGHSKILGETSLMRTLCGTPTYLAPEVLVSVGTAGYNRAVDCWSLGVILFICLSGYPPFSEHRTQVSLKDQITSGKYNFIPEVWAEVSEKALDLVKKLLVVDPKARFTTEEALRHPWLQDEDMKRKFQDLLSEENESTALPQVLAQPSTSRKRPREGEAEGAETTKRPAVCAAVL
Chain of Tyrosine-protein kinase HCK (Homo sapiens) (P08631 2-526 limits assumed): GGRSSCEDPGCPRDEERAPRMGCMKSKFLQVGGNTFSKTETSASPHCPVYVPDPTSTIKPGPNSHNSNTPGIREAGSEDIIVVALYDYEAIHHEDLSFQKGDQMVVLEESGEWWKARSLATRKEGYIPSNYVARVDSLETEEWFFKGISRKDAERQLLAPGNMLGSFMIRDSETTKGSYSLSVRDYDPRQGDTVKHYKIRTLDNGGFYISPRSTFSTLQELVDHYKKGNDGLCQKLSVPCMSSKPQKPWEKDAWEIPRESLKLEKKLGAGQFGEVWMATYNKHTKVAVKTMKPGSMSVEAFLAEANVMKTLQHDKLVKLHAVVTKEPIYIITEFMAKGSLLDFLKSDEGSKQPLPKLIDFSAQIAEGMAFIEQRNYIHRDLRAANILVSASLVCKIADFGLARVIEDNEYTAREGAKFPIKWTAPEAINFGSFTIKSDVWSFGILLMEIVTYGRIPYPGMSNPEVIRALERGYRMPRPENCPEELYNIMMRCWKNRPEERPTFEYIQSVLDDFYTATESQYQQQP

With `N#Cc1cccc(-c2c[nH]c3ncnc(N4CCOCC4)c23)c1`, the % of inhibition in [1] came to 3%. The compound further returned a % of control in [2] of 100%.
As to `CCN(CC)CCCCNc1ncc2cc(-c3cc(OC)cc(OC)c3)c(NC(=O)NC(C)(C)C)nc2n1`, the % of control in [3] is 100%.
In test [4], `Cc1cc(F)c(C(=O)Nc2cccc(-c3nncn3C(C)C)n2)cc1-n1cnc(C2CC2)c1` yielded a % of control of 71%.
As for `CNC(=O)Nc1ccc(-c2nc(N3CC4CCC(C3)O4)c3cnn(C4CCC5(CC4)OCCO5)c3n2)cc1`, the % of inhibition in test [5] is 2%.
As for `CC[C@@H]1[C@H](F)C(=O)N[C@@H]1COc1nccc2cc(C(N)=O)c(OC)cc12` [ZIMLOVISERTIB], the % of inhibition in test [6] was -8.7%.
Compound `C=CC(=O)Nc1cc(-n2c(=O)ccc3cnc4ccc(-c5ccc(NS(C)(=O)=O)cc5)cc4c32)ccc1C` came in with a % of control in test [7] of 5.6%.
For `CN1Cc2nccc(-c3cn(C)nc3-c3ccc(F)cc3)c2C1=O`, in test [8], the % of inhibition turned out to be 15%.
What is called IC50 is the concentration needed to halve the response being measured. Regarding `COc1cc(Nc2nc(C)cc(-c3cnn4nc(OC)ccc34)n2)cc(C(F)(F)F)c1`, the % of control in test [9] was 100%. In [10], this compound came in with an IC50 greater than 10 µM.
With `O[C@H]1CC[C@H](Nc2ncc3nc(Nc4c(F)cc(F)cc4F)n([C@H]4CCOC4)c3n2)CC1`, the % of control in [11] came to 72%.
Consider `CCC(=O)N1CCN(c2ccc(-n3c(=O)ccc4cnc5ccc(-c6cnc7ccccc7c6)cc5c43)cc2C(F)(F)F)CC1`, for which the % of control in test [12] worked out at 80%.
On to `CC(C)(O)[C@H](F)CN1Cc2cc(NC(=O)c3cnn4cccnc34)c(N3CCOCC3)cc2C1=O`, for which, in test [13], the % of inhibition came out at 86.3%.
The compound `Nc1cnc(N2CCc3cc(S(=O)(=O)Nc4c(F)cc(Cl)cc4F)cc(N4CCCC4=O)c32)nc1` [TP-020n] came in with a % of control in test [14] of 100%.
On to `CC(=O)Nc1cccc(-n2c(=O)n(C3CC3)c(=O)c3c(Nc4ccc(I)cc4F)n(C)c(=O)c(C)c32)c1`, for which the % of control in test [15] is 98%.
As to `C=CC(=O)Nc1ccc(C(=O)Nc2[nH]nc3c2CN(C(=O)N[C@H](CN(C)C)c2ccccc2)C3(C)C)cc1`, the % of engagement in test [16] stood at 12.9%.

The values above are taken from ChEMBL document CHEMBL5465560, “Selectivity Literature for EUbOPEN Chemogenomic Library” (2024).
